{"source": "paper PMC12607897", "about": "“Inhibition of HIV-1 replication by primer RNA packaging inhibitors” (mBio, 2025)", "key": {"[1]": {"molecular_target": "T1, mLysRS:IN interaction (human mLysRS, HIV-1 IN) (UniProt P12497+Q15046)", "T1 construct": "made in house", "T1 sequence (Q15046 other isoform, or with tags, fused parts or gaps, other chains not shown)": "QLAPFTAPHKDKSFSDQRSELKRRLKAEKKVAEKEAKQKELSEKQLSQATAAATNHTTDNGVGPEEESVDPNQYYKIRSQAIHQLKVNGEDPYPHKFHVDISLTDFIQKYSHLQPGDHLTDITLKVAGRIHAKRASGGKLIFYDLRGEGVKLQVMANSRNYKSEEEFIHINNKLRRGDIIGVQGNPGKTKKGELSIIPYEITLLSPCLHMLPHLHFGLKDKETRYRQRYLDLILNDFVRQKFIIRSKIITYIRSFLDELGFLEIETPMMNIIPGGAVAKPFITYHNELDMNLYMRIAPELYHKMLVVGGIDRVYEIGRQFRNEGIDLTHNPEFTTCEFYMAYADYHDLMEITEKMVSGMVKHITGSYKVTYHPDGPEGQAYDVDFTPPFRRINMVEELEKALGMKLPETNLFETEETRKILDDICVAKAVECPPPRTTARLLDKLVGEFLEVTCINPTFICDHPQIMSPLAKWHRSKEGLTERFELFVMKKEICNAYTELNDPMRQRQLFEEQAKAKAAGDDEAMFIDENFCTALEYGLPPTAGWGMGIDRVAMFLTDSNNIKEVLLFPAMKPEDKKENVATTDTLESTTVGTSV", "test": "HTRF assay of mLysRS:IN interaction", "assay_type": "binding, human / HIV-1", "conditions": "for effect on the mLysRS:IN interaction in the HTRF assay: dihydropyridine derivatives, Fig. S2", "protocol": "Fig 1 Determination of the half-maximal inhibitory concentration (IC50) of the drugs in the mLysRS:IN binding assay. The binding of mLysRS to IN (red) or p38 (blue) was monitored in the HTRF assay in the presence of increasing drug concentrations (9–1,000 µM). The experimental values (symbols) were fitted (curves) to the equation Y = Ymin + {(Ymax − Ymin)/[1 + (X/IC50)^n]}, where n is the Hill coefficient. […] Proteins were isolated as described previously ([4]). Several batches of IN were used throughout this study. […] The molecules are dissolved in DMSO at a final concentration of 10 mM. After a 1 h incubation on ice, antibodies (Cisbio) directed to the His-tag and conjugated with Eu^3+ cryptate (Cisbio #61HISKLB) and the HA-tag conjugated with XL665 (Cisbio #610HAXLB) were added, and incubation was continued for 30 min. After the addition of 50 mM KF, fluorescence of Eu^3+ cryptate and of XL665 was recorded at 620 nm (I620) and 665 nm (I665), respectively, following excitation of Eu^3+ cryptate at 317 nm, in an Infinite M1000 PRO microplate reader (TECAN). The results were expressed as the ratio of I665/I620."}, "MT4 cells": {"test_system": "MT4 cells", "test": "cell toxicity by MTT assay", "assay_type": "cell-based, human", "conditions": "MTT assay, 1, 3.3 or 10 µM", "protocol": "(§1) Fig 3 Effect of the inhibitors on HIV-1 replication and cell toxicity. MT4 cells were infected with NL4-3-GFP virus. Two days after infection, inhibitors were added to the culture medium at final concentrations of 1, 3.3, or 10 µM. The final concentration of DMSO was 0.1%. Five days after infection, GFP expression was quantified by flow cytometry, and cell viability was determined by the MTT assay. NInf corresponds to non-infected cells. Six independent experiments were performed, and standard deviations are shown. A Student t-test was used to determine statistical significance compared with the control experiment with DMSO (*: P < 0.001; **: P < 0.0001).\nReplication of the NL4-3 virus was determined either by the ELISA technique or in HeLa-P4 cells by the CPRG method as described previously ([29]). These are HeLa CD4 LTR-lacZ cells in which the expression of lacZ is induced by the HIV transactivator Tat, allowing precise quantification of the infectivity of HIV-1. The viral titer was determined by quantifying β-galactosidase activity in HeLa-P4 lysates in a colorimetric assay based on the cleavage of chlorophenol red-β-D-galactopyranoside (CPRG) by β-galactosidase. The cytotoxicity is evaluated by the MTT assay."}, "mLysRS": {"molecular_target": "mLysRS (Homo sapiens, UniProt Q15046)", "sequence (Q15046 31-625 isoform Q15046-2)": "as the sequence (Q15046 other isoform, or with tags, fused parts or gaps, other chains not shown) above", "test": "tRNA aminoacylation assay", "assay_type": "biochemical", "conditions": "drug added up to 1 mM", "protocol": "Initial rates of tRNA aminoacylation were measured at 25°C in 0.1 mL of 20 mM Imidazole-HCl buffer (pH 7.5), 100 mM KCl, 0.5 mM DTT, 12 mM MgCl2, 2 mM ATP, 180 µM ^14C-labeled lysine (NEN; 16.66 Ci/mol), and saturating amounts of global yeast tRNA ([30]). The incubation mixture contained catalytic amounts (2 nM) of mLysRS appropriately diluted in 10 mM Tris-HCl (pH 7.5), 10 mM 2-mercaptoethanol, containing bovine serum albumin at 4 mg/mL. Inhibitors were added at final concentrations ranging from 3.9 to 1,000 µM. One unit of activity is the amount of enzyme producing 1 nmol of lysine-tRNA^Lys/min, at 25°C.\nFig. S5. Effect of inhibitors on mLysRS activity. The tRNA-aminoacylation activity of mLysRS\nwas determined in the presence of increasing concentrations of the drugs. Two independent\nexperiments were performed and standard deviations are shown.\nFig. 6. Raw data of quantification of minus-strand strong stop viral DNA and viral RNA by\ndigital PCR from viruses recovered after 72 h incubation in the presence of 10 µM of the drugs."}, "[2]": {"test_system": "HIV-1 NLENG1-IRES-GFP (NL4-3-GFP) virus in MT4 cells", "test": "ex vivo HIV-1 replication assay, GFP expression by flow cytometry in infected MT4 cells (multiple cycles)", "assay_type": "cell-based", "conditions": "for GFP fluorescence, % of the value observed when DMSO was added alone: drug 10 µM, added 36–48 h after infection, read 72 h later", "protocol": "To test this hypothesis, azelastine, lacidipine, and cilnidipine were used in an ex vivo assay to determine their effect on HIV-1 proliferation. MT4 cells were infected with NLENG1-IRES-GFP, a virus that allows for multiple cycles of infection, and the molecules were added to the medium 36–48 h after infection, before the completion of the first round of viral infection; 72 h after the drugs were added, when two rounds of HIV-1 infection were underway, the level of GFP fluorescence was determined by flow cytometry, as a marker of HIV-1 infection (Fig. 3, left panel). HIV-1 replication was inhibited in a dose-dependent manner. […]. […] At the same time, no drug toxicity was observed, as determined by the MTT assay (Fig. 3, right panel). […] The selectivity index (SI) ([24]) of the three drugs, defined as the ratio of 50% cytotoxic concentration (CC50; >20 µM) to 50% inhibitory concentration (IC50; ~5 µM), >4.\nas §1\nMT4 cell line ([26]) was maintained in RPMI 1640. HEK293T and HeLa-P4 cells ([27]) were maintained in Dulbecco’s modified Eagle medium (DMEM). All media were supplemented with Glutamax and with 10% heat-inactivated fetal calf serum (Hyclone) and 1% penicillin/streptomycin (100 units/mL) (Gibco). All media were purchased from Gibco (Life Technologies Co.). All cell lines used here were incubated at 37 °C, under 5% CO2 atmosphere. HIV-1 stocks were prepared by calcium phosphate-mediated transfection of HEK293T cells, as previously described ([22]), with shuttle vector plasmids encoding HIV-1 NL4-3 (GenBank: AF324493.1) or NLENG1-IRES-GFP ([28]). The latter vector comes from the HIV NL4-3 strain and contains a gfp-IRES-nef cassette at the nef locus. […].\nFor NL4-3-GFP vectors, viral infection is followed by GFP expression (i.e., the percentage and geometric mean fluorescence intensity [MFI] of GFP^+ cells). Infectivity was estimated by flow cytometry using a FACS Celesta flow cytometer (BD Biosciences). Toxicity is also assessed by flow cytometry (side and forward scatter)."}, "[3]": {"test_system": "HIV-1 NL4-3 virus particles", "test": "digital PCR / RT-dPCR of minus-strand strong stop cDNA and viral RNA in particles", "assay_type": "cell-based", "conditions": "10 µM drug, 72 and 96 h after infection", "text": "We used digital RT-PCR and digital PCR to determine the viral mRNA and minus-strand strong stop viral cDNA content of the particles (Fig. 7; Fig. S6). The amount of early viral cDNA produced in the HIV-1 particles is a measure of the efficiency of the initiation step of reverse transcription, which requires the packaging of tRNA3^Lys at the budding step, the primer for cDNA synthesis.\nFig 7 Effect of drugs on viral synthesis of minus-strand strong stop cDNA. Viruses were harvested from the culture medium after 72 (red) or 96 h (blue) of infection of MT4 cells with NL4-3 viruses. Minus-strand strong stop viral DNA and viral RNA (vRNA) were quantified by digital PCR and RT-dPCR, respectively. Viruses were harvested from cultures grown in the presence of 10 µM of azelastine (Aze), lacidipine (Lac), or cilnidipine (Cil), or H2O or DMSO as controls. Values and the associated standard deviations (n = 3) are expressed as the ratios of the values obtained for the H2O or DMSO controls. […].\nMT4 cells (2 × 10^6 cells) were infected with the NL4-3 viruses. After 4–5 h of infection at 37°C, cells were twice washed with PBS, incubated 5 min at 37°C in 0.25% trypsin-EDTA solution (Gibco) to eliminate viruses remaining in the medium, incubated 5 min at 37°C in complete RPMI medium, twice washed with PBS, resuspended in RPMI medium at a cell density of 200 × 10^3 cells/mL and incubated with 10 µM of azelastine (25 mM stock solution in H20), or lacidipine and cilnidipine (25 mM stock solution in DMSO). A second aliquot of the inhibitors was added to the culture medium 48 h after infection. […] All RNA and DNA quantifications were performed by digital PCR and RT-qPCR on a QIAcuity instrument (QIAGEN) using 26K 24-well nanoplates and the QIAcuity Probe PCR and One-Step Viral RT-PCR kits. Primers and probes were 5′-[…], 5′-[…], and 5′-[…] for the quantification of minus-strand strong-stop cDNA, and 5′-[…], 5′-[…], and 5′-[…] CGT for viral RNA quantification."}, "[4]": {"conditions": "HTRF, mLysRS 1.5 nM dimer, IN 25 nM dimer, read-out: half-maximal inhibitory concentration (IC50) in the mLysRS:IN assay"}}, "note": "Where two headings read alike, the source gives them in different places.", "data": [{"smiles": "CCOC(=O)C1=C(C)NC(C)=C(C(=O)OCC)C1", "note": "[Diludine]", "values": [{"measurement": "effect on the mLysRS:IN interaction in the HTRF assay", "setting": "[1]", "value": "did not significantly alter"}]}, {"smiles": "COC(=O)C1=C(C)NC(C)=C(C(=O)OC(C)(C)CN(C)CCC(c2ccccc2)c2ccccc2)C1c1cccc([N+](=O)[O-])c1", "note": "(centres unmarked) [Lercanidipine]", "values": [{"measurement": "cell toxicity", "setting": "MT4 cells", "value": "higher cellular toxicity"}]}, {"smiles": "CC1=C(C(=O)OC(C)C)C(c2cccc([N+](=O)[O-])c2)C(C(=O)OC2CN(C(c3ccccc3)c3ccccc3)C2)=C(N)N1", "note": "(centres unmarked) [azelnidipine]", "values": [{"measurement": "cell toxicity", "setting": "MT4 cells", "value": "higher cellular toxicity"}]}, {"smiles": "CCCC(=O)OCOC(=O)C1=C(C)NC(C)=C(C(=O)OC)C1c1cccc(Cl)c1Cl", "note": "(centres unmarked) [celvidipine]", "values": [{"measurement": "effect on the mLysRS:IN interaction in the HTRF assay", "setting": "[1]", "value": "did not significantly alter"}]}, {"smiles": "COCCOC(=O)C1=C(C)NC(C)=C(C(=O)OC/C=C/c2ccccc2)C1c1cccc([N+](=O)[O-])c1", "note": "(centres unmarked) [cilnidipine]", "values": [{"measurement": "IC50", "setting": "[1]; [4]", "value": "310 ± 30", "unit": "µM"}, {"measurement": "inhibition of Lysyl-tRNA^Lys synthesis", "setting": "mLysRS", "value": "did not inhibit"}, {"measurement": "GFP fluorescence, % of the value observed when DMSO was added alone", "setting": "[2]", "value": 18.9, "unit": "%"}, {"measurement": "minus-strand strong stop cDNA in viruses, normalized to viral RNA", "setting": "[3]", "value": "significantly reduced"}]}, {"smiles": "CCOC(=O)C1=C(C)NC(C)=C(C(=O)OC)C1c1cccc(Cl)c1Cl", "note": "(centres unmarked) [felodipine]", "values": [{"measurement": "effect on the mLysRS:IN interaction in the HTRF assay", "setting": "[1]", "value": "did not significantly alter"}]}, {"smiles": "COC(=O)C1=C(C)NC(C)=C(C(=O)OC(C)C)C1c1cccc2nonc12", "note": "(centres unmarked) [isradipine]", "values": [{"measurement": "IC50", "setting": "[1]", "value": "> 500", "unit": "µM"}]}, {"smiles": "CCOC(=O)C1=C(C)NC(C)=C(C(=O)OCC)C1c1ccccc1/C=C/C(=O)OC(C)(C)C", "note": "[lacidipine]", "values": [{"measurement": "IC50", "setting": "[1]; [4]", "value": "64 ± 8", "unit": "µM"}, {"measurement": "inhibition of Lysyl-tRNA^Lys synthesis", "setting": "mLysRS", "value": 30, "unit": "%"}, {"measurement": "GFP fluorescence, % of the value observed when DMSO was added alone", "setting": "[2]", "value": 27.2, "unit": "%"}, {"measurement": "minus-strand strong stop cDNA in viruses, normalized to viral RNA", "setting": "[3]", "value": "significantly reduced"}]}, {"smiles": "CCOC(=O)C1=C(COCCN)NC(C)=C(C(=O)OC)[C@@H]1c1ccccc1Cl", "note": "[levamlodipine]", "values": [{"measurement": "effect on the mLysRS:IN interaction in the HTRF assay", "setting": "[1]", "value": "did not significantly alter"}]}, {"smiles": "COC(=O)C1=C(C)NC(C)=C(C(=O)OCCN(C)Cc2ccccc2)C1c1cccc([N+](=O)[O-])c1", "note": "(centres unmarked) [nicardipine]", "values": [{"measurement": "IC50", "setting": "[1]", "value": "> 500", "unit": "µM"}]}, {"smiles": "COCCOC(=O)C1=C(C)NC(C)=C(C(=O)OC(C)C)C1c1cccc([N+](=O)[O-])c1", "note": "(centres unmarked) [nimodipine]", "values": [{"measurement": "effect on the mLysRS:IN interaction in the HTRF assay", "setting": "[1]", "value": "did not significantly alter"}]}, {"smiles": "COC(=O)C1=C(C)NC(C)=C(C(=O)OCC(C)C)C1c1ccccc1[N+](=O)[O-]", "note": "(centres unmarked) [nisoldipine]", "values": [{"measurement": "inhibition of HIV-1 replication in the ex vivo assay", "setting": "[2]; NL4-3-GFP, Fig. S3", "value": "did not inhibit"}]}, {"smiles": "CCOC(=O)C1=C(C)NC(C)=C(C(=O)OC)C1c1cccc([N+](=O)[O-])c1", "note": "(centres unmarked) [nitrendipine]", "values": [{"measurement": "IC50", "setting": "[1]", "value": "> 500", "unit": "µM"}]}, {"smiles": "COC(=O)C1=C(C#N)NC(C)=C(C(=O)OC(C)C)C1c1cccc([N+](=O)[O-])c1", "note": "(centres unmarked) [nivaldipine]", "values": [{"measurement": "IC50", "setting": "[1]; [4]", "value": "> 500", "unit": "µM"}]}]}
